Measured values published in paper PMC6026185 (Scientific Reports, 2018).
Where two headings read alike, the source gives them in different places.

What was measured:
hNKCC1A = biological target: T1, hNKCC1A (Homo sapiens, UniProt P55011); assay: 86Rb+ uptake in hNKCC1A-expressing Xenopus laevis oocytes; type: cell-based; details: 86Rb+ uptake, Xenopus oocytes, 5 min, corrected for uninjected oocytes; median and range of 3–7 experiments
T1 construct: Full-length NKCC1 (NKCC1A) comprises ~1200 amino acids; expressed in transfected cells; host or cells: Xenopus laevis oocytes injected with cRNA (pXOOM vector)
T1 sequence (P55011 1-1212): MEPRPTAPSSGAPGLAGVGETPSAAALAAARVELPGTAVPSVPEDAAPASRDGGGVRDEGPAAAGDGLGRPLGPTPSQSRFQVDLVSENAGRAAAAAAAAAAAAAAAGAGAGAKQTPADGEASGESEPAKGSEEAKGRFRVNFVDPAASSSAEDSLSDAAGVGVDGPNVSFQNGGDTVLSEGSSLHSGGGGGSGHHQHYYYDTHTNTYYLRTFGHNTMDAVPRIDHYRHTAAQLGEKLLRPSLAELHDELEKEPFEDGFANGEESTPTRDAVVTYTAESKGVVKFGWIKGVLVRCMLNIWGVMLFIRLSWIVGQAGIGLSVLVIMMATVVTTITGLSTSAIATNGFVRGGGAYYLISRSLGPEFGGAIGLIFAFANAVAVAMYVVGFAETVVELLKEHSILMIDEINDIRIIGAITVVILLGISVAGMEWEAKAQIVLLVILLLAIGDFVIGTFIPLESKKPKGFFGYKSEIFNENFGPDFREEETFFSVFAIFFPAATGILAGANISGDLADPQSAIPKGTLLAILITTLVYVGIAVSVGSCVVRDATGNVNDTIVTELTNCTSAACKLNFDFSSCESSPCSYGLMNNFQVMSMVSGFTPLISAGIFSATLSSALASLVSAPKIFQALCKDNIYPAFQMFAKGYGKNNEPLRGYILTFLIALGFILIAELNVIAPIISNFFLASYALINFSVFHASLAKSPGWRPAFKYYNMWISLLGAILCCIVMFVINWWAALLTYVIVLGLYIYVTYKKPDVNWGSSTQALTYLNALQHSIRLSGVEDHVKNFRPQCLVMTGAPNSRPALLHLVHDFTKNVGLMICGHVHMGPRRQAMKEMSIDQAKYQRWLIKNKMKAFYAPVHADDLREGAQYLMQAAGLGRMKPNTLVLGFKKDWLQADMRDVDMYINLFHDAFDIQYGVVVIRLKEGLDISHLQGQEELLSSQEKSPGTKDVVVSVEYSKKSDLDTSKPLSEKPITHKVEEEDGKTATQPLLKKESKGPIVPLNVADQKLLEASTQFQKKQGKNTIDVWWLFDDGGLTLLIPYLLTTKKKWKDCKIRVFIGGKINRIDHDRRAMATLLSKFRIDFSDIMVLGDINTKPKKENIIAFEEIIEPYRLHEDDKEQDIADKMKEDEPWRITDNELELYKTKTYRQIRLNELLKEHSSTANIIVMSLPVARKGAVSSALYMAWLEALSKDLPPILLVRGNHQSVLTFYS
Protocol: The oocytes were kept in Kulori medium (in mM: 90 NaCl, 1 KCl, 1 CaCl2, 1 MgCl2, 5 Hepes, pH 7.4, 182 mOsm) for 5–6 days at 19 °C prior to experiments.
To activate NKCC1A and NKCC1B prior to the ^86Rb^+ uptake measurements aimed at measuring NKCC-mediated fluxes, hNKCC1A- or hNKCC1B-expressing oocytes or uninjected control oocytes (4–13 oocytes per well) were pre-incubated for 30 min at room temperature in a K^+-free solution (containing in mM: 5 choline chloride, 95 NaCl, 1 MgCl2, 1 CaCl2, 10 Hepes, pH 7.4, 207 mOsm), which causes shrinkage of the oocyte and thus activation of NKCC1A[22]. […] The radioactivity was determined by liquid scintillation β-counting with Aquasafe 300 Plus scintillation cocktail (Zinsser Analytic GmbH, Frankfurt, Germany) using a Microbeta Trilux (Perkin Elmer). hNKCC1-mediated K^+ uptake was assessed as ([fluxNKCC1-expressing oocytes in presence of x µM drug]−[fluxuninjected oocytes in presence of x µM drug]), in order to correct for endogenous NKCC activity. […]
Significance of differences in transport activity of hNKCC1A or hNKCC1B expressing oocytes vs. uninjected oocytes were analyzed by the Kruskal-Wallis test followed by Dunn’s multiple comparisons test. […]

NKCC2 = system: NKCC2; parameters: method as in ref Palfrey et al.[48]; Schlatter et al.[23]; Frelin et al.[49]; O’Grady et al.[50]; Glanville et al.[51]; Hannaert et al.[52]; details: Rabbit kidney TAL; rat kidney TAL; NKCC2 isoforms not differentiated; ref Palfrey et al.[48]; Schlatter et al.[23]; Frelin et al.[49]; O’Grady et al.[50]; Glanville et al.[51]; Hannaert et al.[52]; cited from earlier work
NKCC1 = details: Activated state; isoforms not differentiated; turkey erythrocytes; mIMCD-K2 cells; chick cardiac cells; winter flounder intestine; rat erythrocytes and thymocytes; ref Palfrey et al.[48]; Schlatter et al.[23]; Frelin et al.[49]; O’Grady et al.[50]; Glanville et al.[51]; Hannaert et al.[52]; cited from earlier work
hNKCC2 isoform A = details: Xenopus oocytes; ref Payne et al.[57]; Isenring et al.[58]; Plata et al.[59]; Carota et al.[56]; Lykke et al.[60]; Lykke et al.[29]; read-out: IC50 (µM) NKCC2 (hA); cited from earlier work
mNKCC2 isoform A = system: mNKCC2 isoform A; parameters: method as in ref Payne et al.[57]; Isenring et al.[58]; Plata et al.[59]; Carota et al.[56]; Lykke et al.[60]; Lykke et al.[29]; details: Xenopus oocytes; ref Payne et al.[57]; Isenring et al.[58]; Plata et al.[59]; Carota et al.[56]; Lykke et al.[60]; Lykke et al.[29]; read-out: IC50 (µM) NKCC2 (mA); cited from earlier work
mNKCC2 isoform B = system: mNKCC2 isoform B; parameters: method as in ref Payne et al.[57]; Isenring et al.[58]; Plata et al.[59]; Carota et al.[56]; Lykke et al.[60]; Lykke et al.[29]; details: Xenopus oocytes; ref Payne et al.[57]; Isenring et al.[58]; Plata et al.[59]; Carota et al.[56]; Lykke et al.[60]; Lykke et al.[29]; read-out: IC50 (µM) NKCC2 (mB); cited from earlier work
mNKCC2 isoform F = system: mNKCC2 isoform F; parameters: method as in ref Payne et al.[57]; Isenring et al.[58]; Plata et al.[59]; Carota et al.[56]; Lykke et al.[60]; Lykke et al.[29]; details: Xenopus oocytes; ref Payne et al.[57]; Isenring et al.[58]; Plata et al.[59]; Carota et al.[56]; Lykke et al.[60]; Lykke et al.[29]; read-out: IC50 (µM) NKCC2 (mF); cited from earlier work
hNKCC1 [1] = details: HEK-293 cells; activated state; NKCC1 isoforms not differentiated; ref Payne et al.[57]; Isenring et al.[58]; Plata et al.[59]; Carota et al.[56]; Lykke et al.[60]; Lykke et al.[29]; cited from earlier work
hNKCC1 [2] = system: hNKCC1; parameters: method as in Gill et al.[47]; details: Rb+ flux, Ion Channel Reader technology, HEK cell line; ref Gill et al.[47]; cited from earlier work
[3] = parameters: method as in DrugBank database; details: ref DrugBank database; cited from earlier work

**Q.** With `CCCCNc1cc(C(=O)O)cc(S(N)(=O)=O)c1Oc1ccccc1` [Bumetanide] as the compound, how does the IC50 (hNKCC1A) read?
**A.** The IC50 was 0.945 µM.

**Q.** What about the IC50 (NKCC2) of the same compound?
**A.** The IC50 was 0.2 to 0.33 µM.

**Q.** And the IC50 (NKCC1)?
**A.** The IC50 was 0.25 to 0.6 µM.

**Q.** What about the IC50 (hNKCC2 isoform A) of the same compound?
**A.** Its IC50 is 0.54 to 4 µM.

**Q.** What about the IC50 (mNKCC2 isoform A) of the same compound?
**A.** Its IC50 is 2 µM.

**Q.** What about the IC50 (mNKCC2 isoform B) of the same compound?
**A.** The IC50 was 0.6 µM.

**Q.** What about the IC50 (mNKCC2 isoform F) of the same compound?
**A.** The IC50 was 3.4 µM.

**Q.** And the IC50 (hNKCC1 [1])?
**A.** The IC50 was 0.16 to 0.28 µM.

**Q.** And the IC50 (hNKCC1 [2])?
**A.** Its IC50 is 1160 nM.

**Q.** What about the “Lipophilicity (logP)” value [3] of the same compound?
**A.** The value was 2.7.
